Patent publication US9266878B2, “Phosphatidylinositol 3-kinase inhibitors” (Gilead Calistoga LLC, priority 2012, dated 2016)

Legend:
Experiment in all cases: Enzymatic activity of PI3K isoforms, TR-FRET assay (PIP3 formation)
Format in all cases: biochemical
PI3Kβ = PI3Kβ (Homo sapiens (Human), UniProt P42338)
In short: (§1)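 IC50 (nM) reflects inhibition of PIP3 formation by purified recombinant heterodimeric PI3K, measured as loss of TR-FRET signal. The read-out comes from competition between enzyme-made PIP3 and labelled PIP3 for binding to the GRP-1 pleckstrin homology domain.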

PI3Kγ = PI3Kγ (Homo sapiens (Human), UniProt P48736)
PI3Kγ, sequence (P48736 whole entry): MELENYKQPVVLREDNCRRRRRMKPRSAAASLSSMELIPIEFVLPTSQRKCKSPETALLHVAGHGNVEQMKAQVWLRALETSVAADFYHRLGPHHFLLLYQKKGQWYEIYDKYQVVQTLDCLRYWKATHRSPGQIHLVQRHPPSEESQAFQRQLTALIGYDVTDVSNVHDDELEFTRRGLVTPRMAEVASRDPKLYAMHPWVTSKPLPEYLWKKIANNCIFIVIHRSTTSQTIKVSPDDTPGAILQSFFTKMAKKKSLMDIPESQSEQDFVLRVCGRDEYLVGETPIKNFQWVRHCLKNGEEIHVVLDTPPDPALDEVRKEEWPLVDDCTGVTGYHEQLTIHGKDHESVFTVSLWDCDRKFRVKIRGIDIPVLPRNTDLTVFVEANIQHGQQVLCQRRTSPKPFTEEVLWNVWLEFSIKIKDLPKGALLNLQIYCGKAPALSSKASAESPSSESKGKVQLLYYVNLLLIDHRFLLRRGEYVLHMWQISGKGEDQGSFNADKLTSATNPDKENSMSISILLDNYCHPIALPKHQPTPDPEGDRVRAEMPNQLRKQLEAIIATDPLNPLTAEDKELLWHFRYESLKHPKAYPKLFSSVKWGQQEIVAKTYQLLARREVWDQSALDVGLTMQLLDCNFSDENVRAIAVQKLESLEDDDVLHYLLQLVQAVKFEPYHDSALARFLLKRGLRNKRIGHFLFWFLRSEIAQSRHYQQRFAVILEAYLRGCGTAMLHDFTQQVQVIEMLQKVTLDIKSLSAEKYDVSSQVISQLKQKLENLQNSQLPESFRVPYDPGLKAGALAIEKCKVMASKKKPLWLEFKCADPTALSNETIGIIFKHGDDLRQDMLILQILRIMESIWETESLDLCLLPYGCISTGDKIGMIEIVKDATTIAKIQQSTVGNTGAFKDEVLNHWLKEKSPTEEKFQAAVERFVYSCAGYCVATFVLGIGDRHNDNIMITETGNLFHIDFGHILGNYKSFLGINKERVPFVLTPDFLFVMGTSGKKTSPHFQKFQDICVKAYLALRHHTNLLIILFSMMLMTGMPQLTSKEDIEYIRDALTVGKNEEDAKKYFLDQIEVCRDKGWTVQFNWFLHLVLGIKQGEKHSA
PI3Kγ, sequence (Q8WYR1 whole entry partner): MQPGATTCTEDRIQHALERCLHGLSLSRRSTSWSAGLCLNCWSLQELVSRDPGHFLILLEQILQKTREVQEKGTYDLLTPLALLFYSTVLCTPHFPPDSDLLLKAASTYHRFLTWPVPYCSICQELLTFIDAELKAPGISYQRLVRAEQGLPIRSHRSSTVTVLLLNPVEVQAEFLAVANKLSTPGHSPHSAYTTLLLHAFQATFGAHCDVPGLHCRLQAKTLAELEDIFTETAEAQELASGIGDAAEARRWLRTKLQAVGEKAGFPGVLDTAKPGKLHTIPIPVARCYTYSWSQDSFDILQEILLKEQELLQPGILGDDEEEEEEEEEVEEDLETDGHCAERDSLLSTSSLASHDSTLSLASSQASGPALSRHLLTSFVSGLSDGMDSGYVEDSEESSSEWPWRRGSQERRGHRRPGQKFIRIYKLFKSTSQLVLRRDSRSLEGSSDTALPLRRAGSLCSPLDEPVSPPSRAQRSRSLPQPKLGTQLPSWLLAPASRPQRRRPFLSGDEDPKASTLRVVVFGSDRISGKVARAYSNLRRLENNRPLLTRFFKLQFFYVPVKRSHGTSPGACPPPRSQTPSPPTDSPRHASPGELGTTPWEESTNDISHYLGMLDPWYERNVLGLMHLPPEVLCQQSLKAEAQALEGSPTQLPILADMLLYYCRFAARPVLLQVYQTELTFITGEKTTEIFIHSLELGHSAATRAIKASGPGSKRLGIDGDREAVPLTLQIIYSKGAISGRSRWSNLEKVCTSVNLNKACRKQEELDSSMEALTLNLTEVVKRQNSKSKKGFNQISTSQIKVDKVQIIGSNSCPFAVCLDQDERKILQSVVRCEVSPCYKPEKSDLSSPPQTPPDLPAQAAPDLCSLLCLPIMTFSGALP
In short: as §1

PI3Kα = PI3Kα (Homo sapiens (Human), UniProt P42336)
PI3Kα, sequence (P42336 whole entry): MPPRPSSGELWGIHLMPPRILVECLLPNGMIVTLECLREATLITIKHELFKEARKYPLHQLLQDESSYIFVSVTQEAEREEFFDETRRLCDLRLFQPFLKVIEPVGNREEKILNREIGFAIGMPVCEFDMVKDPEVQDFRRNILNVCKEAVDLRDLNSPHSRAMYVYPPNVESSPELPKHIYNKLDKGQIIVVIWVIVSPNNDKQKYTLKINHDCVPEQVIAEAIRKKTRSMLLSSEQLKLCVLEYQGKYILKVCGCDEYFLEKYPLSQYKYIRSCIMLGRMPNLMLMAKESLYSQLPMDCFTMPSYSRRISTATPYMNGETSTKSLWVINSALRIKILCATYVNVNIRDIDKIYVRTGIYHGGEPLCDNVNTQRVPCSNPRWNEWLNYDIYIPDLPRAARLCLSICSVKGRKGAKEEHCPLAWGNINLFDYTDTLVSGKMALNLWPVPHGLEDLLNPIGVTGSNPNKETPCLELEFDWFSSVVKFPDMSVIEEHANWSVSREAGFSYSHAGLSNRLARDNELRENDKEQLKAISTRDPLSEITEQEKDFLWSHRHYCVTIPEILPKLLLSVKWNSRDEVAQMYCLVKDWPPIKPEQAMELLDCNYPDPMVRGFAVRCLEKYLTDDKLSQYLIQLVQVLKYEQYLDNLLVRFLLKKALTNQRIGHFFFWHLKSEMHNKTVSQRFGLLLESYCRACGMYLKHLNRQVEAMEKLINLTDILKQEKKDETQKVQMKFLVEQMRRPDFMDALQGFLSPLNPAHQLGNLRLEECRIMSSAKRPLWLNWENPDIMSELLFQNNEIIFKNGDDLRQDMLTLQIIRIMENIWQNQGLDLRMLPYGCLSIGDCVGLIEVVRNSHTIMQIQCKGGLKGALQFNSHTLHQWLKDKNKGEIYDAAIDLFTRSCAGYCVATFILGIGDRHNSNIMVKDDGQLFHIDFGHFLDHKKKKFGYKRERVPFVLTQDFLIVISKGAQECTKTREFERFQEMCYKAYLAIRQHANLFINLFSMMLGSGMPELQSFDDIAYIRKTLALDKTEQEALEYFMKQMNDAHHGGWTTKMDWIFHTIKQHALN
PI3Kα, sequence (P27986 whole entry partner): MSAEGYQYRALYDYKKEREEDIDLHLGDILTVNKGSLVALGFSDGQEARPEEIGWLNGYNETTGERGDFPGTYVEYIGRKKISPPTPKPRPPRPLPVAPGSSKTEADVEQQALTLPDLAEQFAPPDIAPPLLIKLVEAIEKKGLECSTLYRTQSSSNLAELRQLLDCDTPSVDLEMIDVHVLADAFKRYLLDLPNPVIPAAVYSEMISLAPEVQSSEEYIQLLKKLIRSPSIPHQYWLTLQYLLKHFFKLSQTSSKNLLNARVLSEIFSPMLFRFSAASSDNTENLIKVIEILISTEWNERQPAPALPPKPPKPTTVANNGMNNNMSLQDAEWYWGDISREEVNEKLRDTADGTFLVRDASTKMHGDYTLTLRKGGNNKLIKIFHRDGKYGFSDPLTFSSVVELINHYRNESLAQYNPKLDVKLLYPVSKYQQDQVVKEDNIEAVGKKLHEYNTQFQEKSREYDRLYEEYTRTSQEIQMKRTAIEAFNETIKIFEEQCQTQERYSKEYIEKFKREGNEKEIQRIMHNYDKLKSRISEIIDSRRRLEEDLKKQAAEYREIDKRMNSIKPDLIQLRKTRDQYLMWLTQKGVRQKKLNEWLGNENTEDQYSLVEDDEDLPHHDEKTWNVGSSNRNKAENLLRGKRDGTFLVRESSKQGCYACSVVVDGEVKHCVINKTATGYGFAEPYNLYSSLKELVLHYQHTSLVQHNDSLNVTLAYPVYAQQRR
In short: (§2)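 After 30 min at 25° C, reactions were quenched with 10 mM EDTA plus 10 nM labeled-PIP3 and 35 nM Europium-GRP-1, and TR-FRET was read (Ex 340, Em 615/665 nm). Enzymes were purified recombinant heterodimers; product PIP3 competes off the labeled tracer. Values given as IC50, nM.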

PI3Kδ = PI3Kδ (Homo sapiens (Human), UniProt O00329); conditions: bound given in nM
PI3Kδ, sequence (O00329 whole entry): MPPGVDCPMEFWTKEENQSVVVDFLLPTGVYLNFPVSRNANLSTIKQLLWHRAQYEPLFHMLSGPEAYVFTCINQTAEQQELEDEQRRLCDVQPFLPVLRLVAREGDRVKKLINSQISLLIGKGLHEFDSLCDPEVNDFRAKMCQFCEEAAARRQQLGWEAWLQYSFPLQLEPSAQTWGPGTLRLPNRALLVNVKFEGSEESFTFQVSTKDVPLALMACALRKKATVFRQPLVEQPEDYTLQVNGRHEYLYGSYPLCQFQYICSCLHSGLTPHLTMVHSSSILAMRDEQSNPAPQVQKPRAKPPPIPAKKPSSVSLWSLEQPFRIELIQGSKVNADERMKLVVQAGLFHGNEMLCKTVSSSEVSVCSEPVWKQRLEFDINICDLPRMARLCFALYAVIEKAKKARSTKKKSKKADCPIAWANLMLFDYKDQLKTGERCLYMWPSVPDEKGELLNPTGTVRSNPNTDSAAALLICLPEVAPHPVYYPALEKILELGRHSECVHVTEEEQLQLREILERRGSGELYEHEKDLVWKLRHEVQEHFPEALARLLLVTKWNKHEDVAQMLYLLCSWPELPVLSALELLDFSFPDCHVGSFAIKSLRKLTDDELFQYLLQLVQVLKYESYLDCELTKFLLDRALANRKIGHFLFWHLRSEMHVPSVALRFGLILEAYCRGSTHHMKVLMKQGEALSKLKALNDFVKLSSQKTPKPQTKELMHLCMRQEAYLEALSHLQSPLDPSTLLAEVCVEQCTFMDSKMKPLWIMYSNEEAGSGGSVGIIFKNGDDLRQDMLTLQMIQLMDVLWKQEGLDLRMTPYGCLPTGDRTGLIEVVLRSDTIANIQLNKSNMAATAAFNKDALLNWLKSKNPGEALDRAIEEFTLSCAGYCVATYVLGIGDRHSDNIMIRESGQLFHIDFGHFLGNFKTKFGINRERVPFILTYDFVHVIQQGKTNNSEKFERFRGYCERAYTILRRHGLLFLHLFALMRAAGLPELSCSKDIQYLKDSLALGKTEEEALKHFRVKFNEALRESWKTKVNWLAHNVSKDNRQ
PI3Kδ, sequence (P27986 whole entry partner): as the sequence (P27986 whole entry partner) above
In short: as §2

SMILES | IC50 (PI3Kβ; bound given in uM) [µM] | IC50 (PI3Kγ; bound given in uM) [µM] | IC50 (PI3Kα; bound given in uM) [µM] | IC50 (PI3Kδ) [nM] | IC50 (PI3Kβ; bound given in nM) [µM] | IC50 (PI3Kγ; bound given in nM) [µM] | IC50 (PI3Kα; bound given in nM) [µM]
C[C@H](Nc1ncnc(N)c1C#Cc1ccc(F)cn1)c1nc2cccc(F)c2c(=O)n1-c1ccccc1 [Compound 8a, (S)-2-(1-(6-amino-5-((5-fluoropyridin-2-yl)ethynyl)pyrimidin-4-ylamino)ethyl)-5-fluoro-3-phenylquinazolin-4(3H)-one] | > 1 | > 1 | > 1 | < 100 |  |  | 
C[C@H](Nc1ncnc(N)c1C#Cc1ccc(F)cn1)c1nc2cccc(Cl)c2c(=O)n1-c1cccc(S(C)(=O)=O)c1 [Compound 58a, (S)-2-(1-((6-amino-5-((5-fluoropyridin-2-yl)ethynyl)pyrimidin-4-yl)amino)ethyl)-5-chloro-3-(3-(methylsulfonyl)phenyl)quinazolin-4(3H)-one] | > 1 | > 1 | > 1 |  |  |  | 
CC(C)OC(=O)c1ccc(C#Cc2c(N)ncnc2N[C@@H](C)c2nc3cccc(Cl)c3c(=O)n2-c2ccccc2)nc1 [Compound 137a, (S)-isopropyl 6-((4-amino-6-((1-(5-chloro-4-oxo-3-phenyl-3,4-dihydroquinazolin-2-yl)ethyl)amino)pyrimidin-5-yl)ethynyl)nicotinate] | > 1 | > 1 | > 1 |  |  |  | 
C[C@H](Nc1ncnc(N)c1C#Cc1ncc(F)cc1F)c1nc2cccc(Cl)c2c(=O)n1-c1ccccc1 [Compound 82a, (S)-2-(1-((6-amino-5-((3,5-difluoropyridin-2-yl)ethynyl)pyrimidin-4-yl)amino)ethyl)-5-chloro-3-phenylquinazolin-4(3H)-one] | > 1 | > 1 | > 1 | < 100 |  |  | 
C[C@H](Nc1ncnc(N)c1C#Cc1ccc(F)cn1)c1nc2c(Cl)cccc2c(=O)n1-c1ccccc1 [Compound 5a, (S)-2-(1-(6-amino-5-((5-fluoropyridin-2-yl)ethynyl)pyrimidin-4-ylamino)ethyl)-8-chloro-3-phenylquinazolin-4(3H)-one] | > 1 | > 1 | > 1 | < 100 |  |  | 
C[C@H](Nc1ncnc(N)c1C#CC1CCCCC1)c1nc2cccc(Cl)c2c(=O)n1-c1ccccc1 [Compound 145a, (S)-2-(1-((6-amino-5-(cyclohexylethynyl)pyrimidin-4-yl)amino)ethyl)-5-chloro-3-phenylquinazolin-4(3H)-one] | > 1 | > 1 | > 1 | < 100 |  |  | 
CCc1cccc(-n2c([C@H](C)Nc3ncnc(N)c3C#Cc3ccc(F)cn3)nc3cccc(Cl)c3c2=O)c1 [Compound 61a, (S)-2-(1-((6-amino-5-((5-fluoropyridin-2-yl)ethynyl)pyrimidin-4-yl)amino)ethyl)-5-chloro-3-(3-ethylphenyl)quinazolin-4(3H)-one] | > 1 | > 1 | > 1 | < 100 |  |  | 
COC[C@@H](Nc1ncnc(N)c1C#Cc1ccc(F)cn1)c1nc2cccc(Cl)c2c(=O)n1-c1cc(F)cc(F)c1 [146b] | > 1 | > 1 | > 1 | < 100 |  |  | 
C[C@H](Nc1ncnc(N)c1C#Cc1cnc(N)cc1C(F)(F)F)c1nc2cccc(Cl)c2c(=O)n1-c1ccccc1 [Compound 18a, (S)-2-(1-(6-amino-5-((6-amino-4-(trifluoromethyl)pyridin-3-yl)ethynyl)pyrimidin-4-ylamino)ethyl)-5-chloro-3-phenylquinazolin-4(3H)-one] |  |  |  | < 100 | < 0.1 | < 0.1 | < 0.1
CC(=O)c1cccc(C#Cc2c(N)ncnc2N[C@@H](C)c2nc3cccc(Cl)c3c(=O)n2-c2ccccc2)c1 [Compound 161a, (S)-2-(1-((5-((3-acetylphenyl)ethynyl)-6-aminopyrimidin-4-yl)amino)ethyl)-5-chloro-3-phenylquinazolin-4(3H)-one] |  |  |  | < 100 | < 0.1 | < 0.1 | < 0.1
C[C@H](Nc1ncnc(N)c1C#CC1CC1)c1nc2cccc(Cl)c2c(=O)n1-c1cc(F)cc(F)c1 [Compound 23a, (S)-2-(1-(6-amino-5-(cyclopropylethynyl)pyrimidin-4-ylamino)ethyl)-5-chloro-3-(3,5-difluorophenyl)quinazolin-4(3H)-one] | > 1 | > 1 | > 1 | < 100 |  |  | 
C[C@H](Nc1ncnc(N)c1C#Cc1cnccn1)c1nc2c(F)cccc2c(=O)n1-c1cc(F)cc(F)c1 [Compound 100a, (S)-2-(1-((6-amino-5-(pyrazin-2-ylethynyl)pyrimidin-4-yl)amino)ethyl)-3-(3,5-difluorophenyl)-8-fluoroquinazolin-4(3H)-one] | > 1 | > 1 | > 1 | < 100 |  |  | 
CC[C@H](Nc1ncnc(N)c1C#Cc1cnccn1)c1nc2cccc(C)c2c(=O)n1-c1cc(F)cc(F)c1 [Compound 108a, (S)-2-(1-((6-amino-5-(pyrazin-2-ylethynyl)pyrimidin-4-yl)amino)propyl)-3-(3,5-difluorophenyl)-5-methylquinazolin-4(3H)-one] | > 1 | > 1 | > 1 | < 100 |  |  | 
C[C@H](Nc1ncnc(N)c1C#Cc1ccccn1)c1nc2cccc(Cl)c2c(=O)n1-c1cc(F)cc(F)c1 [Compound 45a, (S)-2-(1-(6-amino-5-(pyridin-2-ylethynyl)pyrimidin-4-ylamino)ethyl)-5-chloro-3-(3,5-difluorophenyl)quinazolin-4(3H)-one] | > 1 | > 1 | > 1 | < 100 |  |  | 
CC[C@H](Nc1ncnc(N)c1C#Cc1cnccn1)c1nc2cccc(C(F)F)c2c(=O)n1-c1cc(F)cc(F)c1 [Compound 74a, (S)-2-(1-((6-amino-5-(pyrazin-2-ylethynyl)pyrimidin-4-yl)amino)propyl)-5-(difluoromethyl)-3-(3,5-difluorophenyl)quinazolin-4(3H)-one] | > 1 | > 1 | > 1 | < 100 |  |  | 
COc1cc(F)cc(C#Cc2c(N)ncnc2N[C@@H](C)c2nc3c(F)cccc3c(=O)n2-c2ccccc2)c1 [Compound 64a, (S)-2-(1-((6-amino-5-((3-fluoro-5-methoxyphenyl)ethynyl)pyrimidin-4-yl)amino)ethyl)-8-fluoro-3-phenylquinazolin-4(3H)-one] | > 1 | > 1 | > 1 | < 100 |  |  | 
C[C@H](Nc1ncnc(N)c1C#Cc1cnccn1)c1nc2cccc(S(C)(=O)=O)c2c(=O)n1-c1ccccc1 [Compound 113a, (S)-2-(1-((6-amino-5-(pyrazin-2-ylethynyl)pyrimidin-4-yl)amino)ethyl)-5-(methylsulfonyl)-3-phenylquinazolin-4(3H)-one] | > 1 | > 1 | > 1 | < 100 |  |  | 
C[C@H](Nc1ncnc(N)c1C#Cc1ccc(OC(F)(F)F)cc1)c1nc2cccc(Cl)c2c(=O)n1-c1cc(F)cc(F)c1 [Compound 26a, (S)-2-(1-(6-amino-5-((4-(trifluoromethoxy)phenyl)ethynyl)pyrimidin-4-ylamino)ethyl)-5-chloro-3-(3,5-difluorophenyl)quinazolin-4(3H)-one] | > 1 | > 1 | > 1 |  |  |  | 
C[C@H](Nc1ncnc(N)c1C#Cc1cnccn1)c1nc2cccc(F)c2c(=O)n1-c1cc(F)cc(F)c1 [Compound 87a, (S)-2-(1-((6-amino-5-(pyrazin-2-ylethynyl)pyrimidin-4-yl)amino)ethyl)-3-(3,5-difluorophenyl)-5-fluoroquinazolin-4(3H)-one] | > 1 | > 1 | > 1 | < 100 |  |  | 
C[C@H](Nc1ncnc(N)c1C#Cc1ccc(F)cn1)c1nc2cccc(Cl)c2c(=O)n1-c1cccc(C(C)(C)C)c1 [Compound 59a, (S)-2-(1-((6-amino-5-((5-fluoropyridin-2-yl)ethynyl)pyrimidin-4-yl)amino)ethyl)-3-(3-(tert-butyl)phenyl)-5-chloroquinazolin-4(3H)-one] | > 1 | > 1 | > 1 |  |  |  | 
Nc1ncnc(N2CCCC[C@H]2c2nc3cccc(Cl)c3c(=O)n2-c2ccccc2)c1C#Cc1ccccn1 [Compound 36a, (S)-2-(1-(6-amino-5-(pyridin-2-ylethynyl)pyrimidin-4-yl)piperidin-2-yl)-5-chloro-3-phenylquinazolin-4(3H)-one] | > 1 | > 1 | > 1 |  |  |  | 
C[C@H](Nc1ncnc(N)c1C#Cc1ccc2nc(N)sc2c1)c1nc2cccc(Cl)c2c(=O)n1-c1ccccc1 [Compound 46a, (S)-2-(1-(6-amino-5-((2-aminobenzo [d]thiazol-6-yl)ethynyl)pyrimidin-4-ylamino)ethyl)-5-chloro-3-phenylquinazolin-4(3H)-one] |  |  |  | < 100 | < 0.1 | < 0.1 | 
C[C@H](Nc1ncnc(N)c1C#Cc1ccccn1)c1nc2cccc(Cl)c2c(=O)n1-c1cccc(C(N)=O)c1 [Compound 38a, (S)-3-(2-(1-(6-amino-5-(pyridin-2-ylethynyl)pyrimidin-4-ylamino)ethyl)-5-chloro-4-oxoquinazolin-3(4H)-yl)benzamide] |  | > 1 |  | < 100 | < 0.1 |  | 
C[C@H](Nc1ncnc(N)c1C#Cc1cccnn1)c1nc2cccc(Cl)c2c(=O)n1-c1ccccc1 [Compound 14a, (S)-2-(1-(6-amino-5-(pyridazin-3-ylethynyl)pyrimidin-4-ylamino)ethyl)-5-chloro-3-phenylquinazolin-4(3H)-one] | > 1 | > 1 | > 1 |  |  |  | 
